Test results published in ChEMBL document CHEMBL1201862, “PubChem BioAssay data set” (2004).
The source made the active and inactive calls.

Assays:
[1] = biological target: T1, Heat shock factor protein 1 (Mus musculus, UniProt P38532); test: decrease of HSF1-responsive luciferase luminescence – cell-based, NIH3T3, dose retest, confirmation (AID 2382); format: functional;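 note: NIH3T3 fibroblasts with HSF1-driven luciferase reporter stressed by proteasome inhibitor MG132; luminescence from HSF1-driven luciferase expression after 8 hours of MG132 stress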
T1 sequence (P38532 whole entry): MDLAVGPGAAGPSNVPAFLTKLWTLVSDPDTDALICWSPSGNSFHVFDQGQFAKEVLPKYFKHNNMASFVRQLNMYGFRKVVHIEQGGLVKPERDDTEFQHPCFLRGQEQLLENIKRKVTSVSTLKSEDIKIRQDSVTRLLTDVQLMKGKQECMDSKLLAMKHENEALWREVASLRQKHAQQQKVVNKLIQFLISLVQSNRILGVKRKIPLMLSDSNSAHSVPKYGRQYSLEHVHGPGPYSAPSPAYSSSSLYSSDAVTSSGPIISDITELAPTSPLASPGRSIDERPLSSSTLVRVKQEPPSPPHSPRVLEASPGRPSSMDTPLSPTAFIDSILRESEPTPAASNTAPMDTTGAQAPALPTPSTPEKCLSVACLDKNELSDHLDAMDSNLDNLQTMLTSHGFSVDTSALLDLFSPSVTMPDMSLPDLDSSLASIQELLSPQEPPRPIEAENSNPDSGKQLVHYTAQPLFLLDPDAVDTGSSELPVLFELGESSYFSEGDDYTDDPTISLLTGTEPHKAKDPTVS

Cytochrome P450 3A4 = Cytochrome P450 3A4 (Homo sapiens, UniProt P08684);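 note: CYP3A4 tested as one member of a cytochrome P450 panel screen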
H9c2 = test: cells; format: functional, cell-based; conditions: Rattus norvegicus, H9c2, Myocardium
Paired box protein Pax-8 = Paired box protein Pax-8 (Homo sapiens, UniProt Q06710); test: PAX8 transcriptional activity inhibition in RMG-I – RMG-I cells, luciferase, cherry-pick, dose response (AID 687027); format: functional, cell-based;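 note: luciferase reporter driven by Pax8 target thyroperoxidase promoter measured by SteadyGlo luminescence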
[2] = biological target: T2, Zinc finger protein mex-5 (Caenorhabditis elegans, UniProt Q9XUB2); test: potency of MEX-5 RNA-binding blockers – biochemical, C. elegans, fluorescence polarization, dose response (AID 1960)
T2 sequence (Q9XUB2 whole entry): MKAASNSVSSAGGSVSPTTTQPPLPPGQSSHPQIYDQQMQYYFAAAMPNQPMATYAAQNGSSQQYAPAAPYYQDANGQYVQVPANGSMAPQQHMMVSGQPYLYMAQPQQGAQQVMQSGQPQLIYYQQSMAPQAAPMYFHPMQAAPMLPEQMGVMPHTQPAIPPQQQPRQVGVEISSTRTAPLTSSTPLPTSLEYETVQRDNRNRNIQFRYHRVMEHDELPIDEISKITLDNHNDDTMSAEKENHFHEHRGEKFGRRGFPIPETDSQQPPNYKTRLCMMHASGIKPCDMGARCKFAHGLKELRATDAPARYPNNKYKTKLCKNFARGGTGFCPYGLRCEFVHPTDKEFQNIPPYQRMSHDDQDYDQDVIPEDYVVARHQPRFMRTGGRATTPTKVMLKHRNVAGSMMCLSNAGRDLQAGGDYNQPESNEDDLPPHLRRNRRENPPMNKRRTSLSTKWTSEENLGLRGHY

[3] = biological target: T3, RNA-binding protein pos-1 (Caenorhabditis elegans, UniProt G5EF15); test: disruptors of C. elegans POS-1 RNA interaction – biochemical, fluorescence polarization, dose response (AID 1964);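 note: purified POS-1 fused to maltose binding protein made in E. coli; potency of compounds blocking POS-1 binding to fluorescent RNA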
T3 sequence (G5EF15 whole entry): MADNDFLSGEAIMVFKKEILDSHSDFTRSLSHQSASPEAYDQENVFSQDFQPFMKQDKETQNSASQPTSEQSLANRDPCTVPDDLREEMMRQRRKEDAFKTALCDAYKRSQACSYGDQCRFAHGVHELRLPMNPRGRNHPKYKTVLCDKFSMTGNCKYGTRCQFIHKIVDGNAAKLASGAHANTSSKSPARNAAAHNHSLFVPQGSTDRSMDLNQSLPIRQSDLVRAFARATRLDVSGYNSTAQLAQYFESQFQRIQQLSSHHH

Cytochrome P450 2C9 = Cytochrome P450 2C9 (Homo sapiens, UniProt P11712)
Cytochrome P450 2C19 = Cytochrome P450 2C19 (Homo sapiens, UniProt P33261); test: Cytochrome panel assay with activity outcomes. Panel member name: p450-cyp2c19 Compounds with AC50 equal or less than 10 uM are considered active; format: functional
H4 = test: Luminescence Cell-Based Dose Response HTS to Identify Activators of 5'UTR Stem-Loop Driven Prion Protein mRNA Translation in H4 Neuroglioblastoma Cells. [Related pubchem assays: 1829 (Project Summary), 1814 (Primary HTS)]; format: functional; conditions: Homo sapiens
[4] = Luminescence Cell-Based Dose Confirmation HTS to Identify Activators of 5'UTR Stem-Loop Driven Alpha-Synuclein mRNA Translation in H4 Neuroglioblastoma Cells. [Related pubchem assays: 1829 (Project Summary), 1814 (Primary HTS)]; format: functional
[5] = Luminescence Cell-Based Dose Response HTS to Identify Activators of Luciferase Translation or Activity in H4 […] Cells. [Related pubchem assays: 1829 (Project Summary), 1814 (Primary HTS)]; format: functional
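Throughout, for IC50: confirmatory concentration-response retest of ultra-high-throughput screening hits for modulation of myocardial damage; cell death induced by hydrogen peroxide oxidative stress; compound pretreatment for 60 min then peroxide exposure for 2 h; potency is for protecting the cells against peroxide damage rather than for killing them.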

Paired box protein Pax-8, sequence (Q06710 whole entry): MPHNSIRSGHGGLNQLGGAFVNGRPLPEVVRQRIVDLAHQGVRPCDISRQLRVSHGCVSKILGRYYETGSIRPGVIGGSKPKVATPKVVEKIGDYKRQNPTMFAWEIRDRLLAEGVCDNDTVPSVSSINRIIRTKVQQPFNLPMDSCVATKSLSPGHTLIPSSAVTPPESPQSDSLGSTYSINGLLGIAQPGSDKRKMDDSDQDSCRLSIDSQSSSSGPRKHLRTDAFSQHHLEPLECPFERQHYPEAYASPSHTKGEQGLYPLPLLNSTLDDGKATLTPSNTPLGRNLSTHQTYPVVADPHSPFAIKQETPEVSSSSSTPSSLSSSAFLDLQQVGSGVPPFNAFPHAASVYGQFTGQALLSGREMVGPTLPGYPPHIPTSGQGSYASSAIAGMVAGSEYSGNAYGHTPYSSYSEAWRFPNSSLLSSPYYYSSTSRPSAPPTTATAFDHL
Cytochrome P450 3A4, sequence (P08684 whole entry): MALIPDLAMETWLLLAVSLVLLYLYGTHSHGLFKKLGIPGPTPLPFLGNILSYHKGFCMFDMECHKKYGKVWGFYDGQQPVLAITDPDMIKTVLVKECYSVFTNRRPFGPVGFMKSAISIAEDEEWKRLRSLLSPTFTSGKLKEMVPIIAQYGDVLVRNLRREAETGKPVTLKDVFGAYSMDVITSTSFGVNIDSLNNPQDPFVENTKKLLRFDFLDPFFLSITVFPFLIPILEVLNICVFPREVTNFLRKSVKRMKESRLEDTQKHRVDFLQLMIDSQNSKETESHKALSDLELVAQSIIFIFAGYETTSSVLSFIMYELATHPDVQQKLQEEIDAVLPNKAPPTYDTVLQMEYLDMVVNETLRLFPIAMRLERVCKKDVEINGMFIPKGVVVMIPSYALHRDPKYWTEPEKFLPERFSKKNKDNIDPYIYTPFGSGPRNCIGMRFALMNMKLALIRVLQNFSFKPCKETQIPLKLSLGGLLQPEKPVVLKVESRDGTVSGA
Cytochrome P450 2C19, sequence (P33261 whole entry): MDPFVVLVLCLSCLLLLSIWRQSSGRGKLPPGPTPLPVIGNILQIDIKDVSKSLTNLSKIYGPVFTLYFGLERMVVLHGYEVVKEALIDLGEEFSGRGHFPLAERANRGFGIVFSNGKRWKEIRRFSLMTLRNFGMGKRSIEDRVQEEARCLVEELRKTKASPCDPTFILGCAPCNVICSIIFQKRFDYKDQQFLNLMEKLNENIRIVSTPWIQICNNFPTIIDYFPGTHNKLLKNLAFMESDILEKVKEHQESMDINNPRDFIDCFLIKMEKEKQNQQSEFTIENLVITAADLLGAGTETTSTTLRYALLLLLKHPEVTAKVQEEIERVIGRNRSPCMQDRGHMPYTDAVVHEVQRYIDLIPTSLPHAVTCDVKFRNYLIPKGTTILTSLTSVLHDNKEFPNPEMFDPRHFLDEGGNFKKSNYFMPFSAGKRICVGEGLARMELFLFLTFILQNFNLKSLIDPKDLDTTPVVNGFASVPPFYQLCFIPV
Cytochrome P450 2C9, sequence (P11712 whole entry): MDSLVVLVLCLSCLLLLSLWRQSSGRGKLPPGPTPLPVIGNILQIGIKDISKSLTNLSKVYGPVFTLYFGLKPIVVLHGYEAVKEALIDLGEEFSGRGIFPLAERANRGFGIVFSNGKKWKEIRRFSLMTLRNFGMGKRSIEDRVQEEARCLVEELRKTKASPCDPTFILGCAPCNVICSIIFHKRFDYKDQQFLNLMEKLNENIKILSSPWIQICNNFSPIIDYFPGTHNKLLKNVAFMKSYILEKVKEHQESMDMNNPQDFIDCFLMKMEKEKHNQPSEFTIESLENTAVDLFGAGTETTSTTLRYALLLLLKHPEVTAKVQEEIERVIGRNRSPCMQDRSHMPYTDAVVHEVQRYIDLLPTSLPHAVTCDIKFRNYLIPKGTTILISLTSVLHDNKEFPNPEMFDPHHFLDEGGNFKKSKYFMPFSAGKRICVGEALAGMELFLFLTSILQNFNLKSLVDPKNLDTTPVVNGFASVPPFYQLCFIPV

## O=C(Oc1cc(=O)oc2c1c(=O)n1c3c(cccc23)CC1)c1ccc(F)cc1
[1]
  EC50: 22.2 µM (active)

## CN1CCC(N(C)C(=O)CCc2nc(O)c3ccccc3n2)CC1
Cytochrome P450 3A4
  AC50: 28.2 µM (inconclusive)
H9c2
  IC50: > 79 µM (inactive)

## C[C@@H]1CN([C@@H](C)CO)C(=O)c2cc(NS(=O)(=O)c3ccc(F)cc3)ccc2O[C@@H](C)CCCCO[C@H]1CN(C)Cc1ccc(C(F)(F)F)cc1
Paired box protein Pax-8
  AC50: 7.5 µM (active)

## CC(C)OC(=O)CC(=O)c1sc2nc3c(cc2c1N)CN(C)CC3
[2]
  EC50: 19.3 µM (inconclusive)
[3]
  EC50: > 300 µM (not active)

## Cc1ccc(Oc2nn[nH]n2)cc1
Cytochrome P450 2C9
  AC50: 7.08 µM (inconclusive)
Cytochrome P450 2C19
  AC50: inconclusive
H4
  EC50: > 120 µM (not active)
[4]
  EC50: > 120 µM (not active)
[5]
  EC50: > 120 µM (not active)

## O=C(CC(=O)c1ccccc1[N+](=O)[O-])c1ccccc1
[1]
  EC50: > 195 µM (not active)

## Cc1nc2ccccc2c2c(N)c3ccccc3n12
H9c2
  IC50: 21.6 µM (active)

## CCC(=O)Nc1c(-c2ccc(Cl)cc2)c(=O)c2ccccc2n1C
[1]
  EC50: > 195 µM (not active)

## COc1ccc(N(CC(=O)NCc2ccc(F)cc2)C(=O)Cn2nnc(-c3ccc(C)o3)n2)cc1OC
[1]
  EC50: > 195 µM (not active)

## CC(CN1CCOCC1)OC(=O)C(c1ccccc1)c1ccccc1 (centres undefined)
[1]
  EC50: > 195 µM (not active)

## COc1cc(-c2cnc3c(NC=O)cc(-c4cccnc4)cn23)cc(OC)c1OC
H9c2
  IC50: 22.4 µM (active)

## COc1ccc(CC(=O)NCC2CCCN(Cc3ccccc3Cl)C2)cc1 (centres undefined)
[1]
  EC50: > 195 µM (not active)

## O=C(CSCc1cccc(F)c1)N1CCN(c2ccccc2)CC1
H4
  EC50: > 120 µM (not active)
[4]
  EC50: 0.47 µM (active)
[5]
  EC50: 6.73 µM (active)

## Clc1ccc(-c2csc(N3CCC(c4ccccc4)C3)n2)cc1 (centres undefined)
H4
  EC50: 31.5 µM (active)
[4]
  EC50: 18.5 µM (active)
[5]
  EC50: 25.7 µM (active)

## C[C@@H]1CN([C@H](C)CO)C(=O)c2cc(NC(=O)c3ccncc3)ccc2O[C@@H](C)CCCCO[C@H]1CN(C)Cc1ccc(C(F)(F)F)cc1
Paired box protein Pax-8
  AC50: 12 µM (active)

## Cc1ccc(C(c2c(C)n(C)n(-c3ccccc3)c2=O)c2c(C)n(C)n(-c3ccccc3)c2=O)s1
H9c2
  IC50: > 79 µM (inactive)

## O=C(c1ccco1)N1CCN(Cc2nc3ccc([N+](=O)[O-])cc3c(=O)n2-c2ccccc2F)CC1
H9c2
  IC50: 27.6 µM (active)

## CC(=O)c1cccc(NC(=O)C(C)OC(=O)Cc2nnc(O)c3ccccc23)c1 (centres undefined)
H9c2
  IC50: > 79 µM (inactive)

## Cc1ccc(N/C=C(/C#N)c2ccsc2)cc1
H4
  EC50: 68.4 µM (active)
[4]
  EC50: 46.7 µM (active)
[5]
  EC50: 52.3 µM (active)

## CSc1ccccc1NC(=O)c1cc(-c2cccs2)on1
H4
  EC50: 17.9 µM (active)
[4]
  EC50: 55.7 µM (active)
[5]
  EC50: > 120 µM (not active)

## COc1cc(C2C(C#N)=C(N)OC3=C2C(=O)CCC3)ccc1OC(=O)N1CCOCC1 (centres undefined)
[2]
  EC50: > 300 µM (not active)
[3]
  EC50: > 300 µM (not active)

## Nn1c(SCc2ccccc2)nnc1C1CCCCC1
H4
  EC50: 21 µM (active)
[4]
  EC50: 25.5 µM (active)
[5]
  EC50: 10.6 µM (active)
